{"source": "patent US6492124B1", "about": "“Trance activated signal transduction pathways in osteoclasts” (The Rockefeller University, priority 1999, dated 2002)", "molecules": {"B1": {"name": "CSF-1: recombinant CSF-1 purchased from R&D Systems (protein, UniProt P09603 33-554, looked up)", "Macrophage colony-stimulating …": "EEVSEYCSHMIGSGHLQSLQRLIDSQMETSCQITFEFVDQEQLKDPVCYLKKAFLLVQDIMEDTMRFRDNTPNAIAIVQLQELSLRLKSCFTKDYEEHDKACVRTFYETPLQLLEKVKNVFNETKNLLDKDWNIFSKNCNNSFAECSSQDVVTKPDCNCLYPKAIPSSDPASVSPHQPLAPSMAPVAGLTWEDSEGTEGSSLLPGEQPLHTVDPGSAKQRPPRSTCQSFEPPETPVVKDSTIGGSPQPRPSVGAFNPGMEDILDSAMGTNWVPEEASGEASEIPVPQGTELSPSRPGGGSMQTEPARPSNFLSASSPLPASAKGQQPADVTGTALPRVGPVRPTGQDWNHTPQKTDHPSALLRDPPEPGSPRISSLRPQGLSNPSTLSAQPQLSRSHSSGSVLPLGELEGRRSTRDRRSPAEPEGGPASEGAARPLPRFNSVPLTDTGHERQSEGSFSPQLQESVFHLLVPSVILVLLAVGGLLFYRWRRRSHQEPQRADSPLEQPEGSPLTQDDRQVELPV"}, "B2": {"name": "IL-1α: recombinant IL-1 purchased from R&D Systems (protein, UniProt P01583 113-271, looked up)", "Interleukin-1 alpha": "SAPFSFLSNVKYNFMRIIKYEFILNDALNQSIIRANDQYLTAAALHNLDEAVKFDMGAYKSSKDDAKITVILRISKTQLYVTAQDEDQPVLLKEMPEIPKTITGSETNLLFFWETHGTKNYFTSVAHPNLFIATKQDYWVCLAGGPPSITDFQILENQA"}}, "format_in_all_cases": "cell-based, mouse", "key": {"osteoclasts": {"system": "osteoclasts", "assay": "Osteoclast differentiation with TRANCE plus CSF-1 (TRAP solution assay)", "conditions": "TRANCE 100 ng/ml plus CSF-1 50 ng/ml; LY294002 200 nM and 800 nM", "procedure": "FIG. 3. c-Src is required for TRANCE-induced PKB activation and osteoclast survival. (A) c-Src was immunoprecipitated from osteoclasts, dendritic cells and macrophages stimulated with TRANCE (1 μg/ml) for the indicated times using an anti-c-Src-specific monoclonal antibody (327). PTK activity of the c-Src immunprecipitates were measured in vitro using SAM68, a PTK specific substrate. The degree of SAM68 phosphorylation was determined by Western blot analysis using an anti-phospho-tyrosine antibody (4G10) and densitometry. Note that c-Src kinase activity was not detectable in TRANCE-treated macrophages most likely due to low levels of c-Src in these cells (Lacey, et al., supra, 1998). (B) Osteoclasts derived from wild type and c-Src deficient mice were stimulated with TRANCE (5 μg/ml) for 10 min and the levels of phosphorylated PKB (PKB^P), total PKB, and total IκBα were determined as in FIG. 1. (C) Osteoclasts from wild-type (open bars) and c-Src deficient (solid bars) mice were washed and then cultured for an additional 24 hours in media alone (Medium) or in media with TRANCE (5 μg/ml) or CSF-1 (10 ng/ml). TRAP solution assays were performed and percent survival calculated. The experiment was performed in triplicate and the mean values with positive standard deviations are shown. […] Osteoclasts were detected by TRAP solution assays. […]"}, "PKB [1]": {"system": "PKB", "assay": "PKB activation in osteoclasts (phospho-PKB Western blot)", "conditions": "for TRANCE-induced PKB activation (phosphorylated form of PKB): osteoclasts pretreated 90 min with inhibitor 10 μM, then TRANCE 1 μg/ml", "procedure": "(§1) FIG. 1. […] (A) Mature bone marrow-derived osteoclasts were stimulated for the indicated times with recombinant hCD8-TRANCE (TRANCE; 1 μg/ml). Levels of phosphorylated forms of p44/p42 ERK (p44 ERK^P and p42 ERK^P), IκBα (IκB-α^P) and PKB (PKB^P) in whole cell extracts were determined using phospho-peptide-specific antibodies as indicated in the figure. […] (B) as in (A) except the use of mature bone marrow-derived dendritic cells instead of osteoclasts.\n(§2) FIG. 2. […] (A) Osteoclasts were serum starved and then pretreated for 90 min with LY294002 (10 μM), Herbimycin A (Herb. A; 10 μM), and PP1 (10 μM) inhibitors which are specific for PI3-kinase, PTKs, and Src-family kinases, respectively, were stimulated for indicated times with TRANCE (1 μg/ml). Levels of phosphorylated p44/p42 ERK, PKB, and IκB-α were determined as described in FIG. 1. Cells pretreated with vehicle (DMSO) were used as a negative control. (B) as in (A) except the use of mature bone marrow-derived dendritic cells.\n(§3) Primary cells and cell lines. […] In brief, bone marrow cells from tibiae and femur of 4-6 week old mice (C57BL/6, Jackson Laboratories) were cultured overnight in media (α-MEM, 10% FCS) in the presence of CSF-1 (5 ng/ml). […] For experiments described in this study, only adherent cells were used after extensive washing. […] After allowing them adhere for 2 hours to a tissue culture dish, contaminating floater cells were washed away and mature dendritic cells were obtained by overnight culture.\n(§4) Cell stimulation, cell transfection and in vitro assays. In vitro differentiated mature dendritic cells, macrophages and osteoclasts were washed to remove exogenous growth factors, cultured in media with low serum (0.5% FCS, 6 hours), then stimulated by adding various cytokines in the presence or absence of inhibitors for various times as indicated. After stimulation, the cells were washed in ice-cold PBS, and subjected to Western blot analysis or immunoprecipitation as described below.\nAll cells were harvested and lysed in extraction buffer (20 mM HEPES NaOH (pH 7.4), 150 mM NaCl, 1% Triton X-100, 10% glycerol, 10 mM EDTA, 1 mM Na3VO4, 1 mM phenylmethylsulfonylfluoride, 1 μg/ml leupeptin, and 0.1 U of aprotinin per ml) and cleared by centrifugation to obtain whole cell extracts. Protein assays were performed to ensure equal amounts of lysates were used in each sample."}, "PKB [2]": {"system": "PKB", "assay": "PKB activation in dendritic cells (phospho-PKB Western blot)", "procedure": "FIG. 1. TRANCE activates p44/42 ERK, NF-κB and PKB in osteoclasts and dendritic cells. (A) Mature bone marrow-derived osteoclasts were stimulated for the indicated times with recombinant hCD8-TRANCE (TRANCE; 1 μg/ml). Levels of phosphorylated forms of p44/p42 ERK (p44 ERK^P and p42 ERK^P), IκBα (IκB-α^P) and PKB (PKB^P) in whole cell extracts were determined using phospho-peptide-specific antibodies as indicated in the figure. The membranes were stripped and incubated with antibodies against the p44/p42 ERK, IκB-α, and PKB as indicated to confirm that similar amounts of whole cell extracts were analyzed. Note the decrease of IκB-α after 10 min of treatment due to its degradation. (B) as in (A) except the use of mature bone marrow-derived dendritic cells instead of osteoclasts.\nFIG. 2. TRANCE-induced PKB activation in osteoclasts and dendritic cells is blocked by inhibitors of PI3-kinase, tyrosine kinases and Src family kinases. (A) Osteoclasts were serum starved and then pretreated for 90 min with LY294002 (10 μM), Herbimycin A (Herb. A; 10 μM), and PP1 (10 μM) inhibitors which are specific for PI3-kinase, PTKs, and Src-family kinases, respectively, were stimulated for indicated times with TRANCE (1 μg/ml). Levels of phosphorylated p44/p42 ERK, PKB, and IκB-α were determined as described in FIG. 1. Cells pretreated with vehicle (DMSO) were used as a negative control. (B) as in (A) except the use of mature bone marrow-derived dendritic cells.\nFIG. 6. Cytokine receptors that engage TRAF6 activate PKB through Src-family kinases. (A) Dendritic cells were treated with TNF (10 ng/ml), TRANCE (5 μg/ml), LPS (50 μg/ml), or IL-1α (20 ng/ml) for the indicated times (min). The activation of PKB was determined in whole cell extracts using a phospho-PKB-specific antibody as described in FIG. 1. (B) Dendritic cells were pretreated with vehicle (DMSO) or the Src-family kinase inhibitor, PP1 (10 μM) for 90 minutes followed by a 15 minute treatment with TRANCE (5 μg/ml), LPS (50 μg/ml), or IL-1α (20 ng/ml) or no treatment at all (−). The activation of PKB was determined as described in FIG. 1.\nPrimary cells and cell lines. Osteoclasts and macrophages were generated from bone marrow precursors as described (Wani, et al., Endocrinology, 140:[…], 1999). In brief, bone marrow cells from tibiae and femur of 4-6 week old mice (C57BL/6, Jackson Laboratories) were cultured overnight in media (α-MEM, 10% FCS) in the presence of CSF-1 (5 ng/ml). After 24 hours, non-adherent cells were harvested, washed, and further cultured in media with CSF-1 (50 ng/ml) plus TRANCE (10 ng/ml) to develop osteoclasts, or with CSF-1 alone to develop macrophages. Using these conditions, after 4 days of culture, greater than 95 percent of the adherent cells were osteoclasts or macrophages. For experiments described in this study, only adherent cells were used after extensive washing. Mature dendritic cells were generated from bone marrow precursors of 4-6 week old female C57BL/6 mice (C57BL/6, Jackson Laboratories) cultured in media (RPMI1640, 5% FBS) and GM-CSF (1:30 cultured supernatant from the J558 cell line, a gift from Dr. R. M. Steinman, The Rockefeller University) for 8 days as previously described (Inaba, et al., J. Exp. Med., 176:1693-1702, 1992). To generate osteoclasts and dendritic cells from c-Src deficient mice, spleen cells, which contain hematopoietic precursors due to extramedullary hematopoeisis, were substituted for bone marrow cells as previously described (Schwartzberg, et al., Genes Dev., 11:2835-2844, 1997). Mature spleen-derived dendritic cells were isolated from spleens treated with collagenase (40 U/ml; Boehinger Mannheim) and subjected to a Nycodenz centrifugation gradient (14.5%; Nycomed) to obtain low density cells. After allowing them adhere for 2 hours to a tissue culture dish, contaminating floater cells were washed away and mature dendritic cells were obtained by overnight culture.\nCell stimulation, cell transfection and in vitro assays. […]"}, "NF-κB": {"system": "NF-κB", "assay": "NF-κB activation measured by IκB-α phosphorylation/degradation in osteoclasts and dendritic cells (Western blot)", "conditions": "osteoclasts and dendritic cells (FIGS. 2A and 2B), inhibitor 10 μM, TRANCE 1 μg/ml", "procedure": "as §1, §2, §3\nas §4, with “below. […]” for “below.”"}, "mature osteoclasts": {"system": "mature osteoclasts", "assay": "Osteoclast survival assay (TRAP solution assay)", "conditions": "24 hours; TRANCE 5 μg/ml or CSF-1 10 ng/ml", "method": "TRAP solution assays were performed and percent survival calculated. The experiment was performed in triplicate and the mean values with positive standard deviations are shown. […] (E) Mature osteoclasts were washed extensively and then cultured for an additional 24 hr in media without (−) or with TRANCE (5 μg/ml; +) in the absence or presence of increasing doses (200 nM and 800 nM) of LY294002. TRAP solution assays were performed and percent survival was as described in Experimental Procedures. The experiment was performed in triplicate and the mean values with positive standard deviations are shown.\nOsteoclast survival assays. In vitro differentiated mature osteoclasts were washed 3 times in media then further cultured for 24 hr in media alone (control) or in media with TRANCE (5 μg/ml) or CSF-1 (10 ng/ml) in the presence or absence of LY294002 as indicated.\nSpecific cell survival (%)=(A405, 24 hr−A405. background)*100/(A405, 0 hr−A405, background)"}}}
{"molecule": "O=c1cc(N2CCOCC2)oc2c(-c3ccccc3)cccc12", "note": "[LY294002]", "values": [{"measurement": "osteoclast differentiation", "setting": "osteoclasts", "value": "did not inhibit"}]}
{"molecule": "COc1cccc(-c2cc(=O)c3ccccc3o2)c1N", "note": "[PD98059, reference compound]", "values": [{"measurement": "TRANCE-induced PKB activation", "setting": "PKB [1]; MEK inhibitor, cell type not stated (osteoclasts and dendritic cells studied), data not shown", "value": "failed to inhibit"}]}
{"molecule": "Cc1ccc(-c2nn(C(C)(C)C)c3ncnc(N)c23)cc1", "note": "[PP1, reference compound]", "values": [{"measurement": "TRANCE-induced PKB activation (phosphorylated form of PKB)", "setting": "PKB [1]", "value": "blocked"}, {"measurement": "TRANCE-induced PKB activation (phosphorylated form of PKB)", "setting": "PKB [2]; dendritic cells pretreated 90 min with inhibitor 10 μM, then TRANCE 1 μg/ml", "value": "inhibited"}, {"measurement": "activation of PKB by IL-1α", "setting": "PKB [2]; dendritic cells pretreated with PP1 10 μM 90 minutes, then IL-1α 20 ng/ml 15 minutes", "value": "inhibited"}, {"measurement": "activation of PKB by LPS", "setting": "PKB [2]; dendritic cells pretreated with PP1 10 μM 90 minutes, then LPS 50 μg/ml 15 minutes", "value": "inhibited"}, {"measurement": "NF-κB activation as measured by IκB-α degradation", "setting": "NF-κB", "value": "neither LY294002, herbimycin A, nor PP1 significantly affected"}]}
{"molecule": "CO[C@H]1[C@@H](OC)C[C@H](C)[C@@H](OC)C2=CC(=O)C=C(NC(=O)/C(C)=C/C=C\\[C@H](OC)[C@@H](OC(N)=O)/C(C)=C/[C@@H]1C)C2=O", "note": "[herbimycin A, reference compound]", "values": [{"measurement": "TRANCE-induced PKB activation (phosphorylated form of PKB)", "setting": "PKB [1]", "value": "blocked"}, {"measurement": "NF-κB activation as measured by IκB-α degradation", "setting": "NF-κB", "value": "neither LY294002, herbimycin A, nor PP1 significantly affected"}]}
{"molecule": "B1", "values": [{"measurement": "cytokine-promoted survival in c-Src−/− osteoclasts compared to wild-type", "setting": "mature osteoclasts", "value": "not reduced"}]}
{"molecule": "B2", "values": [{"measurement": "PKB activation in dendritic cells stimulated with cytokine", "setting": "PKB [2]; TNF 10 ng/ml, TRANCE 5 μg/ml, LPS 50 μg/ml, IL-1α 20 ng/ml, CD40L data not shown", "value": "activated"}]}
